# Laboratory results reported in patent US5948913A, “Hydrate for drug use” (Daiichi Pharmaceutical Co., Ltd., priority 1994, dated 1999).
# Where a name gives a salt, the structure may show the parent alone. Read-outs that look alike come from different tables or passages of the source.
# What was measured:
# [1] = Weight / moisture change as a function of humidity; assay type: physicochemical
# Experimental: On the other hand, when methanol was used as the solvent at the time of crystal precipitation, the thus obtained hydrochloride anhydrate of the compound of formula (1) also contained methanol, but it was able to remove the contained methanol almost completely when the crystals were dried with heating (120° C.) under a reduced pressure for several days or more.
# (§1) (FIG. 2). Also, changes in its appearance were hardly found and its changes in the content (determination by HPLC) were not found under dry heating conditions (50° C., tightly sealed in a bottle, 1 month) or wet heating conditions (40° C., 75% humidity, 1 month).
# FIG. 1 is a graph showing changes in the weight of 3-[2-[4-(3-chloro-2-methylphenyl)-1-piperazinyl]ethyl]-5,6-dimethoxy-1-(4- imidazolylmethyl)-1H-indazole hydrochloride anhydrate plotted as a function of humidity,
# FIG. 2 is a graph showing changes in the weight of the 3.5-hydrate of the present invention plotted as a function of humidity, […]
# [2] = tested on: hippocampus CA1 nerve cells; experiment: Changes in hippocampus nerve cells in cerebral ischemia model; assay type: in vivo; conditions: jird, 5 minutes cerebral ischemia, 100 mg/kg oral 1 hour after ischemia loading
# Experimental: When transient cerebral ischemia is loaded on a jird, hippocampus nerve cells start to get necrosis several days thereafter, and such a change is called delayed nerve cell death. The following test was carried out in accordance with the method of T. Kirino (Brain Res., 239, 57-69 (1982)). That is, each jird was loaded with 5 minutes of cerebral ischemia and then sacrificed to count the number of nerve cells remained in the hippocampus CA1 region.
# rhesus monkeys = experiment: Central nervous inhibition actions; assay type: in vivo, rhesus monkey; conditions: 10 mg/kg intravenous injection
# Experimental: (§2) Particularly serious actions upon hemodynamics and electrocardiogram were not observed in dogs, and significant central nervous inhibition actions were not observed in rhesus monkeys even when a dose of 10 mg/kg was administered by intravenous injection.
# rats = conditions: rat, in vivo
# Experimental: (§3) With regard to the toxicity, its oral single administration toxicity was 200 mg/kg or more, and serious side effects were not observed in rats by repeated oral administration toxicity test over 10 days and repeated intravenous injection toxicity test over 10 days.
# [3] = in vivo
# Experimental: as §3
# [4] = target: calmodulin-dependent phosphodiesterase (PDE); experiment: Calmodulin inhibition action (calmodulin-dependent phosphodiesterase inhibition); assay type: biochemical; conditions: CaM and CaM-PDE of bovine brain origin, [3H]-cGMP, 30° C., 10 minutes; read-out: PDE inhibition effect, IC50
# [5] = tested on: mouse nitrogen-loaded hypoxia model; experiment: Mouse nitrogen-loaded hypoxia model; assay type: in vivo; conditions: mice, 30 mg/kg oral, 60 minutes before nitrogen gas feeding
# Experimental: This test was carried out in accordance with the method of Albert Wauquier et al. (Japan J. Pharmacol., 38, 1-7 (1985)).
# A total of 9 to 10 mice were used in 1 group, and each animal 60 minutes after oral administration of a drug to be tested (30 mg/kg) was put into a transparent container (500 ml capacity) equipped with an air outlet and then the container was fed with nitrogen gas at a rate of 5.0 L/min. The period of time from the commencement of gas feeding until respiratory arrest was measured.
# [6] = tested on: rat microsphere cerebral embolus model; experiment: Anti-edema effect in rat microsphere cerebral embolus model; assay type: in vivo; conditions: 8 hr, intravenous infusion, 24 hours after operation
# Experimental: This test was carried out in accordance with the method of Nobutaka Demura et al. (Neuroscience Res., 17, 23-30 (1983)).
# Under halothane anesthesia, a Slc;Wis rat (about 300 g) which has been treated with caudal vein cannulation in advance was subjected to neck incision to tear off the left side common carotid artery. Wing process palate artery and external carotid artery on the same side were also torn off and subjected to artery clipping. Carbon microspheres (50±10 μm in diameter) were suspended in 20% dextran and injected into the left side common carotid artery to effect dispersion of the microspheres in the left cerebral hemisphere via the left internal carotid artery, the common carotid artery was immediately clipped to stop bleeding from the microsphere-injected part, and then the artery clip was removed to restart blood circulation. Thereafter, each drug solution was continuously injected using an infusion pump from the catheter which has been inserted into caudal vein.
# Each animal was sacrificed by decapitation 24 hours after the operation, and the brain was excised immediately after the decapitation to measure wet weights of both left and right hemispheres. Each tissue was then dried overnight at 150° C. to measure its dry weight and to calculate water content of each hemisphere.
# As a control group, a vehicle group (20% dextran only) was arranged and treated in the same manner.
# dogs = experiment: Actions upon hemodynamics and electrocardiogram; assay type: in vivo, dog
# Experimental: as §2
# [7] = Storage stability under dry heating and wet heating conditions; assay type: physicochemical
# Experimental: as §1
# [8] = dry heating conditions (50° C., tightly sealed in a bottle, 1 month)
# [9] = wet heating conditions (40° C., 75% humidity, 1 month)
compound,measurement,setting,value
"COc1cc2c(CCN3CCN(c4cccc(Cl)c4C)CC3)nn(Cc3c[nH]cn3)c2cc1OC [Inventive Example 2, 3-[2-[4-(3-Chloro-2-methylphenyl)-1-piperazinyl]ethyl]-5,6-dimethoxy-1-(4-imidazolylmethyl)-1H-indazole 1.5-hydrochloride (anhydrous crystals)]",moisture absorption in response to environmental humidity,"[1]; room temperature, anhydrate after removal of methanol, FIG. 1",absorb moisture in response to the environmental humidity
"COc1cc2c(CCN3CCN(c4cccc(Cl)c4C)CC3)nn(Cc3c[nH]cn3)c2cc1OC [compound of the present invention, 3-[2-[4-(3-chloro-2-methylphenyl)-1-piperazinyl]ethyl]-5,6-dimethoxy-1-(4-imidazolylmethyl)-1H-indazole]",protecting effect against nerve cell death,[2],distinct protecting effect
same,Hippocampus Nerve Cell Density,[2]; CA1 region,131 ± 21.2 cells/mm
same,significant central nervous inhibition actions,rhesus monkeys,not observed
same,serious side effects,rats; iv,not observed
same,serious side effects,rats; po,not observed
same,oral single administration toxicity,[3],≥ 200 mg/kg
same,IC50,[4],5.46 µM
same,increasing ratio of time until respiratory arrest (control group defined as 100%),[5],15.1%
same,"Water content, Control Side (right hemisphere)",[6]; dose 1 mg/kg/hr,78.8 ± 0.1%
same,"Water content, Disease Side (left hemisphere)",[6]; dose 1 mg/kg/hr,80.1 ± 0.4%
same,"Water content, Control Side (right hemisphere)",[6]; dose 2 mg/kg/hr,78.7 ± 0.1%
same,"Water content, Disease Side (left hemisphere)",[6]; dose 2 mg/kg/hr,79.8 ± 0.3%
same,particularly serious actions upon hemodynamics and electrocardiogram,dogs,not observed
"COc1cc2c(CCN3CCN(c4cccc(Cl)c4C)CC3)nn(Cc3c[nH]cn3)c2cc1OC [Inventive Example 3, 3-[2-[4-(3-Chloro-2-methylphenyl)-1-piperazinyl]ethyl]-5,6-dimethoxy-1-(4-imidazolylmethyl)-1H-indazole dihydrochloride 3.5-hydrate]",changes in powder X-ray diffraction pattern or detectable water content,"[1]; relative humidity changed from about 20% to about 80% at 25° C., FIG. 2",did not show changes
same,changes in appearance,[7]; [8],hardly found
same,changes in the content (determination by HPLC),[7]; [8],not found
same,changes in appearance,[7]; [9],hardly found
same,changes in the content (determination by HPLC),[7]; [9],not found
